Our source for the IC50 values is EP0072352B1, “Benzazepin-2-ones, process for their preparation, pharmaceutical preparations containing these compounds and the compounds for therapeutical use” (CIBA-GEIGY AG, priority 1981, dated 1983).

SMILES strings stand for the structures. Like-named read-outs stand apart in the source and are kept apart here.

By IC50 is commonly meant the midpoint of a concentration-inhibition curve.

The experiment has as its target T1, Angiotensin-umwandelnde Enzym (ACE) (Oryctolagus cuniculus, UniProt P12822).
T1 construct: Es wurde ein Kaninchen-Lungengewebe-Präparat; from tissue; host or cells: lung of adult male rabbits
T1 sequence (P12822 34-1310): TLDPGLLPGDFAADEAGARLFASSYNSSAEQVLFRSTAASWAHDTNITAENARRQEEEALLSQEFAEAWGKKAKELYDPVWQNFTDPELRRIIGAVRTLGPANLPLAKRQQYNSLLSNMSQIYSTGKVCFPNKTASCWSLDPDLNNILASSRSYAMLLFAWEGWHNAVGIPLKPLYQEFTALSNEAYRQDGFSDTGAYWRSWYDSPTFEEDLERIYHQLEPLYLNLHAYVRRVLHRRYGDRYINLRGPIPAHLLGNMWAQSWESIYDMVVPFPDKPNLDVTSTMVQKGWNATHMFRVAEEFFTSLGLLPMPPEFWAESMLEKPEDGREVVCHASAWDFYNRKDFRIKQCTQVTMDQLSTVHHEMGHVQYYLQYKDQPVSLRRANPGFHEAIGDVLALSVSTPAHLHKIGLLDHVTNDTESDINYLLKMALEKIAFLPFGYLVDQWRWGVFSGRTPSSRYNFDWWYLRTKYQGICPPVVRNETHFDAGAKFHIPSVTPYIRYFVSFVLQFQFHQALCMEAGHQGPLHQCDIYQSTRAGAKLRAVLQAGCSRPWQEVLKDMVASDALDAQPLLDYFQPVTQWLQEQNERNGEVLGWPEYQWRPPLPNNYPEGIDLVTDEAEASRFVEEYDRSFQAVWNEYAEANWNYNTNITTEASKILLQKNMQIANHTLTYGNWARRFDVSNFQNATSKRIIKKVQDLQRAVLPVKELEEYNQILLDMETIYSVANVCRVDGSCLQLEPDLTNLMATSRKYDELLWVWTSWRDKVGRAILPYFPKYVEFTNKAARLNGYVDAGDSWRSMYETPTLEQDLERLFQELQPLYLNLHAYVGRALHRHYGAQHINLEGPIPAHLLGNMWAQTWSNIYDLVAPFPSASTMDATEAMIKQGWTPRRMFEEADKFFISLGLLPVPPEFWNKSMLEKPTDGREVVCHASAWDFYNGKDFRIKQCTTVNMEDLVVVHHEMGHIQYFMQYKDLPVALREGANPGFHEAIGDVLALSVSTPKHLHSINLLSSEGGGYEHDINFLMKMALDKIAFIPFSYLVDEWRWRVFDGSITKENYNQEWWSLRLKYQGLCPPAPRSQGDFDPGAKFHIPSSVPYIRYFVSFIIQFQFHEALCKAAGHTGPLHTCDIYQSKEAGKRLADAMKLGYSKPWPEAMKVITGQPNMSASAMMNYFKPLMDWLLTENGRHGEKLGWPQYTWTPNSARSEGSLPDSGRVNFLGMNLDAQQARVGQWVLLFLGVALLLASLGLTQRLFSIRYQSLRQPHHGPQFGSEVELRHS
Nature of the experiment: In vitro ACE inhibition (ACEI), rabbit lung tissue preparation, hippuryl-histidyl-leucine substrate, method of Cheung and Cushman. Type of experiment: biochemical, Kaninchen. The text has this:
Die in-vitro-Hemmung des Enzyms, welches das Angiotensin umwandelt, kann bei den Verbindungen dieser Erfindung analog zu Biochim. Biophys. Acta 293, 451 (1973) nachgewiesen werden. Gemäß dieser Methode werden die genannten Verbindungen in ungefähr 1 mMol-Konzentrationen in Phosphatpuffer aufgelöst. Zu 100 Mikroliter von Lösungen der Testverbindung in Phosphatpuffer, welche man auf die gewünschte Konzentration verdünnt, gibt man zuerst 100 Mikroliter von 5 millimolarem Hippuryl-histidylleucin in Phosphatpuffer und dann 50 µl des Angiotensin-umwandelnden Enzyms. Dieses Enzym wird aus Lungen von erwachsenen männlichen Kaninchen in Tris-Puffer, der Kalium- und Magnesiumchlorid und auch Rohrzucker enthält, hergestellt. Die genannten Lösungen werden 30 Minuten bei 37 °C inkubiert, und die weitere Reaktion wird durch Hinzufügen von 0,75 ml einer 0,6-normalen wäßrigen Natriumhydroxidlösung gestoppt. Dann gibt man bei Zimmertemperatur 100 Mikroliter einer 0,2 %-igen Lösung von o-Phthalaldehyd in Methanol und nach 10 Minuten 100 Mikroliter 6n-Chlorwasserstoffsäure dazu. Diese Proben werden in einem Spektrophotometer bei 360 nm mit Wasser verglichen, und ihre optische Dichte wird bestimmt. Diese Werte werden durch einen Konversionsfaktor einer Standard-Kurve angepaßt, wobei man die während der genannten Inkubation von 30 Minuten gebildete Histidyl-leucin-Menge in Nanomolen erhält. Die Ergebnisse werden, um den IC50-Wert zu bestimmen, gegenüber den Wirkstoff-Konzentrationen graphisch als Kurve dargestellt. Der IC50-Wert bedeutet diejenige WirkstoffKonzentration, welche die Hälfte der Aktivität einer Kontrollprobe, die keinen Wirkstoff enthält, ergibt. Als Illustration der Erfindung sei auf das « höher schmelzende 1-Carboxymethyl-3-(1-carboxy-3-phenylpro- pylamino)-2,3,4,5-tetrahydro-1H-[1]-benzazepin-2-on des Beispiels 9 und auf das entsprechende S,S-Enantiomere des Beispiels 19 hingewiesen, welche einen lC50-Wert von 5,2 × 10^-9 M bzw. 1,7 × 10^-9 M aufweisen. Das entsprechende « niedriger schmelzende » 1-Carboxymethyl-3-(1-carboxy-3-phenylpropy- iamino)-2,3,4,5-tetrahydro-1H-[1] benzazepin-2-on des Beispiels 8 zeigt einen lC50-Wert von 5,8 ×10^-8 M.
Die Prüfung der Wirkung von Verbindungen ist gemäss den Methoden für die Auswertung der Hemmung des Enzyms, welches das Angiotensin umwandelt [angiotensin converting enzyme = ACE] durchgeführt worden. In der biochemischen Beurteilung der in vitro ACE-Hemmung [ACE inhibition = A-CEI] wird die Aktivität einer Verbindung im Kaninchen-Lungengewebe bestimmt.
Es wurde ein Kaninchen-Lungengewebe-Präparat [Das and Saffer, J. Biol. Chem. 250 : 6762 (1975) für die Bestimmung von ACE nach der Methode von Cheung und Cushman [Cheung and Cushman, Biochim. Biophys. Acta 293, 451 (1973)] verwendet. In dieser Methode wird die Menge des Histidyl-leucins. welche aus einem synthetischen Substrat innerhalb einer Inkubation von 30 Minuten bei 37° freigesetzt wird, spektrophotometrisch bestimmt. Die lC50-Werte der ACE-Hemmung werden dann graphisch berechnet. Der lC50-Wert ist die Konzentration (in Mol) der getesteten Verbindung, welche die in Abwesenheit der Testsubstanz entstehende Menge des Histidyl-leucins um 50 % herabsetzt.

Setting [1] is: rabbit lung tissue preparation, 30 min incubation at 37°, read-out: In vitro ACEI IC50.

As for `O=C(O)CN1C(=O)[C@@H](N[C@@H](CCc2ccccc2)C(=O)O)CCc2ccccc21` [Beispiel 19, 1-Carboxymethyl-3S-(1S-carboxy-3-phenylpropylamino)-2,3,4,5-tetrahydro-1H-[1] benzazepin-2-on], the IC50 was found to be 1.7 nM (ACE from rabbit lung, 30 min at 37 °C, read-out: IC50-Wert) and 2 nM under setting [1].

In the case of `CCOC(=O)[C@H](CCc1ccccc1)N[C@H]1CCc2ccccc2N(CC(=O)O)C1=O` (racemic) [Beispiel 1, 1-Carboxymethyl-3-(1-äthoxycarbonyl-3-phenylpropylamino)-2,3,4,5-tetrahydro-1H-[1] benzazepin-2-on], the IC50 under setting [1] was found to be 600 nM.
